# From US11123316B2, “Imaging composition and uses thereof” (The University of Melbourne, priority 2014, dated 2021)
# Experiment: Competition Study 2: ZrCl4(THF)2 added to mixture of DFOPhSO3H and DFOSqTaur, ESI-MS
# Format: binding
# Conditions: 50° C., 7 hours, FIG. 46
# Experimental: A 3 mM stock solution of each ligand, DFOPhSO3H and DFOSqTaur, was prepared in a mixture of H2O and MeOH (concentrations were confirmed prior to dilution by UV-Vis Fe^3+ titration in H2O, 430 nm). A mixture of both solutions (25 uL each) was mixed thoroughly and heated to 50° C. A stock solution of ZrCl4(THF)2 in H2O/MeOH (3 mM) was also prepared, and 20 uL of this was added to the ligand mixture. The mixture was incubated at 50° C. for 7 hours.
smiles,measurement,value
CC(=O)N(O)CCCCCNC(=O)CCC(=O)N(O)CCCCCNC(=O)CCC(=O)N(O)CCCCCNc1c(NCCS(=O)(=O)O)c(=O)c1=O [DFOSqTaur],Zr complex found in competition with DFOPhSO3H,presence of the ZrDFOSqTaur complex
